According to PMC10451629, “Evaluation of the Effects of Heteroaryl Ethylene Molecules in Combination with Antibiotics: A Preliminary Study on Control Strains” (Antibiotics, 2023):
Several values for one entry are separate records, joined by “and”; a condition that tells them apart may be missing. Identical values can stand only once. Like-named read-outs stand apart in the source and are kept apart here.

Key:
[1] = tested on: CaCo-2 (ATCC HTB-37) colon–rectal cancer cell line; assay: MTT cytotoxicity assay on CaCo-2 cells; assay type: cell-based, human; settings: Homo sapiens, CaCo-2 cell line, MTT
Description: To fully assess the biological activity of the new molecules, they were tested at different concentrations on the CaCo-2 (ATCC HTB-37) colon–rectal cancer cell line. These human cancer cells were exposed to compound solutions ranging in concentration from 100 µM to 0.01 µM. As a reference compound for these assays, we used 5-Fluorouracil (5-FU), a pyrimidine analog from the antimetabolite family.
The MTT assay was also performed for the selected antibiotics to evaluate the effect of their combined treatment with PB4.
To evaluate the effect of the heteroaryl ethylene compounds and the antibiotics, an MTT ([3-(4,5-dimethylthiazol-2-yl)-2,5-diphenyltetrazolium bromide]) assay was performed as previously described. […] Both concentrations were also tested in combination with PB4 0.2 µM. All antibiotics were provided by Thermo Scientific^TM Oxoid^TM, Basingstoke, UK. Twenty-four hours after plating, the cells were treated with 20 μL of each solution. Untreated cells were used as controls. […] The IC50 values were calculated by nonlinear regression analysis using GraphPad Prism 6.0 software.

[2] = tested on: CaCo2 colon-rectal cancer cell line; parameters: method as in in-house dataset; Log(IC50) 48h: unit not given here; settings: in-house dataset previously tested by the authors' groups, ref in-house dataset, cited from earlier work; for IC50: 48h
[3] = tested on: S. aureus ATCC29213; settings: QSAR dataset, in-house database, previously tested, ref Unpublished results; cited from earlier work
[4] = tested on: E. coli ATCC 25922; assay: Broth microdilution MIC; assay type: cell-based; settings: Escherichia coli, ATCC25922, substance alone, read-out: MIC
[5] = tested on: S. aureus ATCC 12598; assay: Broth microdilution MIC; assay type: cell-based, Staphylococcus aureus; settings: Staphylococcus aureus, ATCC12598, S. aureus ATCC 12598; substance alone; read-out: MIC
[6] = tested on: P. aeruginosa ATCC 27853; assay: Broth microdilution MIC; assay type: cell-based, Pseudomonas aeruginosa; settings: Pseudomonas aeruginosa, ATCC27853, P. aeruginosa ATCC 27853; substance alone; read-out: MIC
[7] = tested on: S. enterica ATCC 14028; assay: Broth microdilution MIC; assay type: cell-based; settings: Salmonella enterica, ATCC14028, substance alone
[8] = tested on: K. pneumoniae ATCC 700603; assay: Broth microdilution MIC; assay type: cell-based, Klebsiella pneumoniae; settings: Klebsiella pneumoniae, ATCC700603, K. pneumoniae ATCC 700603; substance alone; read-out: MIC
[9] = tested on: S. aureus ATCC 29213; assay: Broth microdilution MIC; assay type: cell-based; settings: Staphylococcus aureus, ATCC29213, S. aureus ATCC 29213; substance alone; read-out: MIC
[10] = tested on: S. aureus ATCC BAA-1556 USA300; assay: Broth microdilution MIC; assay type: cell-based, Staphylococcus aureus; settings: Staphylococcus aureus, S. aureus ATCC BAA-1556 USA300; substance alone
[11] = tested on: A. baumannii ATCC 17978; assay: Broth microdilution MIC; assay type: cell-based; settings: Acinetobacter baumannii, ATCC17978, substance alone
[12] = tested on: E. faecalis ATCC 29212; assay: Broth microdilution MIC; assay type: cell-based, Enterococcus faecalis; settings: Enterococcus faecalis, ATCC29212, E. faecalis ATCC 29212; substance alone; read-out: MIC
[13] = Caco-2, 24 h, 24 h of treatment, read-out: IC50 at 24 h
[14] = Caco-2, 48 h, 48 h of treatment, read-out: IC50 at 48 h

Structure (SMILES) | IC50 [2] [µM] | Log(IC50) 48h [2] | further results
O=c1[nH]cc(F)c(=O)[nH]1 [5-FU, 5-Fluorouracil] |  |  | IC50 [1, 13]: ~27 µM; IC50 [1, 14]: 12.9 µM
C[n+]1c(/C=C/c2ccc(-c3ccc(N4CCCCC4)s3)s2)ccc2ccccc21 [BC1] | 20 | 1.30 | 
CCCCN(CCCC)c1ccc(-c2ccc(/C=C/c3ccc(C(=O)O)c[n+]3C)s2)s1 [BCG3] | 8 | 0.90 | 
CC[n+]1ccc2c(c1)CCC/C2=C\c1ccc(N(C)C)cc1 [BCM3] | 1.35 | 0.13 | MIC [3]: 64 µg/mL
CN(C)c1ccc(/C=C/c2cccc[n+]2C)cc1 [BCM4] |  |  | MIC [4]: ≥ 128 µg/mL and ≥ 350 µM; MIC [5]: 64 µg/mL and 175 µM; MIC [6]: > 128 µg/mL and ≥ 350 µM; IC50 [1, 13]: 0.72 µM; IC50 [1, 14]: 0.1 µM; MIC [7]: > 128 µg/mL and ≥ 350 µM; MIC [8]: > 128 µg/mL and ≥ 350 µM; MIC [9]: 128 µg/mL and 350 µM; MIC [10]: 64 µg/mL and 175 µM; MIC [11]: ≥ 128 µg/mL and ≥ 350 µM; MIC [12]: ≥ 128 µg/mL and ≥ 350 µM
C[n+]1c(/C=C/c2cc(Cl)ccc2O)cccc1/C=C/c1cc(Cl)ccc1O [BCM12] |  |  | MIC [3]: > 128 µg/mL
CC[n+]1ccc2c(c1)CCC/C2=C\c1ccccc1O [BCNAc1] |  |  | MIC [3]: > 128 µg/mL
C[n+]1ccccc1/C=C/c1ccc2ccc3c4c2c1C=CC4C=CC3 (stereo not drawn) [GC VI 3] | 0.9 | -0.0458 | 
C[n+]1c(/C=C/c2ccc(N(c3ccccc3)c3ccccc3)cc2)ccc2ccccc21 [GC VI 14] | 4 | 0.602 | 
CN(C)c1ccc(/C=C/c2cc[n+](C)cc2)cc1 [GC VI 17] | 8 | 0.903 | 
CN(C)c1ccc(/C=C/C=C/c2cc[n+](C)cc2)cc1 [GC VI 45] | 16 | 1.20 | 
C[n+]1c(/C=C/c2ccnc(-c3cc(/C=C/c4ccc5ccccc5[n+]4C)ccn3)c2)ccc2ccccc21 [GC VI 71] | 51.2 | 1.71 | 
CCOC(=O)C(C#N)c1ccc(/C=C/c2cc[n+](C)cc2)n1C (stereo not drawn) [GC VII 16] | 70 | 1.85 | 
C[n+]1ccccc1/C=C/c1ccc2ccccc2c1 [GC VII 46] | 5.5 | 0.740 | 
